Here are results for twelve molecules from US9730914B2, “3,5-diaminopyrazole kinase inhibitors” (Axikin Pharmaceuticals, Inc., priority 2014, dated 2017).

Molecules are shown by their SMILES. A value given as a limit tells only on which side of the number the result lay.

Assay [1] has as its target T1, kinase domain protein of RC kinase (RCK) (Homo sapiens, UniProt Q56UN5).
T1 construct: made in house; host or cells: E. coli BL21-derived host (T7 phage) or HEK-293
T1 sequence (Q56UN5 1061-1324 limits assumed): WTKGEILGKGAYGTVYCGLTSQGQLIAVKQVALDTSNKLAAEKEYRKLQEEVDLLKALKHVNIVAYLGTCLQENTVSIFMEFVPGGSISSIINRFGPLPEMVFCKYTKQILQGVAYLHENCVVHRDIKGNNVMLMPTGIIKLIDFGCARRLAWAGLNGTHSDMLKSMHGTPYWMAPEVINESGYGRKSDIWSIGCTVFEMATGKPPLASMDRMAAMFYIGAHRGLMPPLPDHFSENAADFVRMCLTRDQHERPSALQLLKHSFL
In words: Kinase competition binding assay (Kd, qPCR readout), RC kinase. As to conditions: Kd class, read-out: RCK Activity Level. The procedure, abridged:
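Competition binding: DNA-tagged kinase (T7 phage or HEK-293-expressed) plus immobilized biotinylated ligand beads and compound, 1 h at room temperature, 1% DMSO. Bead-bound kinase eluted and quantified by qPCR. Kd from 11-point 3-fold dilution, top 30,000 nM, retested lower if below 0.5 nM.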

The target in another assay is T2, JAK2 (Homo sapiens, UniProt O60674).
T2 construct: made in house; host or cells: E. coli BL21-derived host (T7 phage) or HEK-293
In words: Kinase competition binding assay (Kd, qPCR readout), JAK2. As to conditions: for Kd: Kd class, JAK2, read-out: JAK2 Activity Level; for RCK:JAK2 selectivity ratio: ratio Kd (JAK2): Kd(RCK). An outline of the steps: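 Competition binding: DNA-tagged kinase (T7 phage or HEK-293-expressed), immobilized biotinylated ligand beads and compound in SeaBlock/PBS/Tween/DTT buffer, 1 hour at room temperature; bound kinase eluted and quantified by qPCR. Kd from 11-point 3-fold dilution, top 30,000 nM typically, final DMSO 1%.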
On the technique in general: Real-time PCR tracks product formation cycle by cycle.

Another assay has as its target T3, JAK3 (Homo sapiens, UniProt P52333).
T3 construct: made in house; host or cells: E. coli BL21-derived host (T7 phage) or HEK-293
In words: Kinase competition binding assay (Kd, qPCR readout), JAK3. The note with it: for Kd: Kd class, JAK3, read-out: JAK3 Activity Level; for RCK:JAK3 selectivity ratio: ratio Kd (JAK3): Kd (RCK). An outline of the steps:
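Kd values were derived from 11-point, 3-fold compound series at 1% DMSO, usually topping at 30,000 nM, with retesting from a lower top when under 0.5 nM. It competed with bead-immobilized ligand for 1 h at room temperature, and the captured kinase was measured by qPCR after elution.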

T3 sequence (P52333 811-1124 limits assumed): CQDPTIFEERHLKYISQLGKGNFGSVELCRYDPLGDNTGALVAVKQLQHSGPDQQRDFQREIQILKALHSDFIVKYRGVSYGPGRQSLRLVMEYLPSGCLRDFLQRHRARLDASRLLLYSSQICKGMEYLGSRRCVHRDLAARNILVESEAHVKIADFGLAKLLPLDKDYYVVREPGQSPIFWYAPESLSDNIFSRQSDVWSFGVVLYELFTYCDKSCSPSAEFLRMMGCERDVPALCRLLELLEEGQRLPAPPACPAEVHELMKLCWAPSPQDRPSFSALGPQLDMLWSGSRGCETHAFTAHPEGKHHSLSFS
T2 sequence (O60674 840-1132 limits assumed): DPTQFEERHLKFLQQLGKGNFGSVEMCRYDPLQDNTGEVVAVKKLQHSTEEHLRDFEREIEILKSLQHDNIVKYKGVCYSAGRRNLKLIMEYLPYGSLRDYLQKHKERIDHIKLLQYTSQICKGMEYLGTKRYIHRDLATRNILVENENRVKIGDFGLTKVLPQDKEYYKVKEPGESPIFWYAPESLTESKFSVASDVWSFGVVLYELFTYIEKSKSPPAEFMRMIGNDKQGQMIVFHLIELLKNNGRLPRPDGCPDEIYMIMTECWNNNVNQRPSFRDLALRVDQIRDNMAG

On to `CC(C)N1CCN(c2ccc(Nc3n[nH]c(NCc4ccc(O)cc4)c3C(N)=O)cc2)CC1` [reference compound], for which, in assay [1], the Kd was < 50 nM. At JAK2, the Kd was < 50 nM and the “RCK:JAK2 selectivity ratio” value is “C (C represents 1<Kd (JAK2): Kd (RCK)<10)”. For the same molecule, on JAK3, the Kd is 50 to 100 nM and the “RCK:JAK3 selectivity ratio” value is “B (B represents 10<Kd (JAK3): Kd (RCK)<100)”.
On to `NC(=O)c1c(Nc2ccc(N3CCOCC3)c(Cl)c2)n[nH]c1NCc1ccc(O)cc1` [reference compound], for which the Kd in assay [1] is < 50 nM. For the same molecule, at JAK2, the Kd was < 50 nM and the “RCK:JAK2 selectivity ratio” value is listed as “D (D represents Kd(JAK2): Kd (RCK)<1)”. For the same molecule, at JAK3, the Kd is < 50 nM and the “RCK:JAK3 selectivity ratio” value is given as “C (C represents 1<Kd (JAK3): Kd (RCK)<10)”.
For the molecule `NC(=O)c1c(Nc2ccc(-c3cnco3)cc2)n[nH]c1NCc1ccc(O)cc1` [reference compound], the Kd (in assay [1]; at JAK2; on JAK3) was < 50 nM each time. Besides, the “RCK:JAK2 selectivity ratio” value at JAK2 is recorded as “C (C represents 1<Kd (JAK2): Kd (RCK)<10)”. For the same molecule, at JAK3, the “RCK:JAK3 selectivity ratio” value is given as “C (C represents 1<Kd (JAK3): Kd (RCK)<10)”.
As to `NC(=O)c1c(Nc2ccc(N3CCN(C(=O)N4CCOCC4)CC3)cc2)n[nH]c1NCc1ccc(O)cc1` [reference compound], the Kd in assay [1] is < 50 nM. For the same molecule, on JAK2, the Kd is < 50 nM and the “RCK:JAK2 selectivity ratio” value is given as “D (D represents Kd(JAK2): Kd (RCK)<1)”. Moreover, on JAK3, the Kd is < 50 nM and the “RCK:JAK3 selectivity ratio” value is listed as “C (C represents 1<Kd (JAK3): Kd (RCK)<10)”.
As to `CC(=O)Nc1cccc(Nc2n[nH]c(NCc3ccc(O)cc3)c2C(N)=O)c1` [reference compound], the Kd (in assay [1]; on JAK2; at JAK3) was < 50 nM each time. The “RCK:JAK2 selectivity ratio” value on JAK2 is given as “D (D represents Kd(JAK2): Kd (RCK)<1)”. At JAK3, the “RCK:JAK3 selectivity ratio” value is on record as “D (D represents Kd (JAK3): Kd(RCK)<1)”.
For the molecule `CN1CCN(c2ccc(Nc3n[nH]c(NCc4ccc(O)cc4)c3C(N)=O)cc2Cl)CC1` [reference compound], the Kd (in assay [1]; on JAK2; at JAK3) was < 50 nM each time. In addition, the “RCK:JAK2 selectivity ratio” value on JAK2 is “D (D represents Kd(JAK2): Kd (RCK)<1)”. Further, the “RCK:JAK3 selectivity ratio” value at JAK3 is “C (C represents 1<Kd (JAK3): Kd (RCK)<10)”.
For the molecule `NC(=O)c1c(Nc2ccc(F)cc2)n[nH]c1NCc1ccc(O)cc1` [reference compound], the Kd in assay [1] was < 50 nM. At JAK2, the Kd was < 50 nM and the “RCK:JAK2 selectivity ratio” value was “D (D represents Kd(JAK2): Kd (RCK)<1)”. On JAK3, the Kd was < 50 nM and the “RCK:JAK3 selectivity ratio” value was “D (D represents Kd (JAK3): Kd(RCK)<1)”.
For the molecule `N#Cc1cccc(Nc2n[nH]c(NCc3ccc(O)cc3)c2C(N)=O)c1` [reference compound], the Kd in assay [1] was in the range of 50 to 100 nM. Also, on JAK2, the Kd was < 50 nM and the “RCK:JAK2 selectivity ratio” value was “D (D represents Kd(JAK2): Kd (RCK)<1)”. For the same molecule, at JAK3, the Kd was < 50 nM and the “RCK:JAK3 selectivity ratio” value is reported as “D (D represents Kd (JAK3): Kd(RCK)<1)”.
On to `NC(=O)c1c(Nc2ccc(N3CCN(c4ncccn4)CC3)cc2)n[nH]c1NCc1ccc(O)cc1` [reference compound], for which the Kd in assay [1] was < 50 nM. Moreover, on JAK2, the Kd is < 50 nM and the “RCK:JAK2 selectivity ratio” value is “C (C represents 1<Kd (JAK2): Kd (RCK)<10)”. Further, at JAK3, the Kd is < 50 nM and the “RCK:JAK3 selectivity ratio” value is reported as “C (C represents 1<Kd (JAK3): Kd (RCK)<10)”.
For `NC(=O)c1c(Nc2ccc(CN3CCCCC3)cc2)n[nH]c1NCc1ccc(O)cc1` [reference compound], the Kd in assay [1] was < 50 nM. Also, on JAK2, the Kd is < 50 nM and the “RCK:JAK2 selectivity ratio” value is on record as “D (D represents Kd(JAK2): Kd (RCK)<1)”. Further, at JAK3, the Kd is < 50 nM and the “RCK:JAK3 selectivity ratio” value is recorded as “D (D represents Kd (JAK3): Kd(RCK)<1)”.
Regarding `NC(=O)c1c(Nc2ccc(N3CCSCC3)cc2)n[nH]c1NCc1ccc(O)cc1` [reference compound], the Kd in assay [1] is < 50 nM. Further, on JAK2, the Kd is < 50 nM and the “RCK:JAK2 selectivity ratio” value was “D (D represents Kd(JAK2): Kd (RCK)<1)”. At JAK3, the Kd is < 50 nM and the “RCK:JAK3 selectivity ratio” value was “C (C represents 1<Kd (JAK3): Kd (RCK)<10)”.
Turning to `NC(=O)c1c(Nc2ccc(N)cc2)n[nH]c1NCc1ccc(O)cc1` [reference compound], the Kd in assay [1] lay within 100 to 1000 nM. Besides, at JAK2, the Kd fell in the range of 50 to 100 nM and the “RCK:JAK2 selectivity ratio” value was “D (D represents Kd(JAK2): Kd (RCK)<1)”. Also, on JAK3, the Kd is 100 to 1000 nM and the “RCK:JAK3 selectivity ratio” value is recorded as “D (D represents Kd (JAK3): Kd(RCK)<1)”.
